Laboratory results reported in patent publication US8889874B2, “Imidazolone-chalcone derivatives as potential anticancer agent and process for the preparation thereof” (Council of Scientific and Industrial Research, priority 2010, dated 2014).
Like-named read-outs stand apart in the source and are kept apart here.

Assays:
Type in all cases: cell-based, human
SK-OV-3 (ovarian) = assay: NCI anticancer screen, SRB assay, 48 h; conditions: Homo sapiens, read-out: pGI50 (-log of molar concentration causing 50% inhibition of net cell growth) (converted)
Outline: (§1)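 Sulforhodamine B protein assay read cell growth after 48 h of continuous compound exposure. Dose-response curves per cell line used at least five 10-fold-diluted concentrations, within a panel of fifty-three human lines from nine tumour types.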

SN12C (renal) = assay: NCI anticancer screen, SRB assay, 48 h; conditions: Homo sapiens, SN12C
Outline: as §1

SNB-19 (CNS) = assay: NCI anticancer screen, SRB assay, 48 h; conditions: Homo sapiens
Outline: as §1

SW-620 (colon) = assay: NCI anticancer screen, SRB assay, 48 h; conditions: Homo sapiens
Outline: as §1

TD-47D (breast) = assay: NCI anticancer screen, SRB assay, 48 h; conditions: Homo sapiens
Outline: as §1

UACC-257 (melanoma) = assay: NCI anticancer screen, SRB assay, 48 h; conditions: Homo sapiens
Outline: as §1

Breast cancer cell lines = assay: NCI anticancer screen, SRB assay, panel summary; conditions: Homo sapiens
Outline: as §1

CNS cancer cell lines = assay: NCI anticancer screen, SRB assay, panel summary; conditions: for GI50: Homo sapiens
Outline: as §1

Colon cancer cell lines = assay: NCI anticancer screen, SRB assay, panel summary; conditions: for GI50: Homo sapiens
Outline: as §1

[1] = system: Leukemia cancer cell lines; assay: NCI anticancer screen, SRB assay, panel summary; conditions: Homo sapiens
Outline: as §1

[2] = system: Melanoma cancer cell lines; assay: NCI anticancer screen, SRB assay, panel summary; conditions: for GI50: Homo sapiens
Outline: as §1

[3] = system: Non-small cell lung cancer cell lines; assay: NCI anticancer screen, SRB assay, panel summary; conditions: Homo sapiens
Outline: as §1

[4] = system: Ovarian cancer cell lines; assay: NCI anticancer screen, SRB assay, panel summary; conditions: Homo sapiens
Outline: as §1

[5] = system: Prostate cancer cell lines; assay: NCI anticancer screen, SRB assay, panel summary
Outline: as §1

Renal cancer cell lines = assay: NCI anticancer screen, SRB assay, panel summary; conditions: Homo sapiens
Outline: as §1

[6] = 48 h exposure, SRB, read-out: GI50
[7] = read-out: pGI50 (-log of molar concentration causing 50% inhibition of net cell growth) (converted)

## COc1cc(/C=C/C(=O)c2cccc(-n3cc(-c4ccccc4)[nH]c3=O)c2)cc(OC)c1OC [5a, 4-phenyl-1-3-[(E)-3-(3,4,5-trimethoxyphenyl)-2-propenoyl]phenyl-2,3-dihydro-1H-2-imidazolone]
SK-OV-3 (ovarian)
  GI50: 3.24 µM
SN12C (renal); SN 12C, read-out: pGI50 (-log of molar concentration causing 50% inhibition of net cell growth) (converted)
  GI50: 2.09 µM
SN12C (renal); [6]
  GI50: 2.09 µM
SNB-19 (CNS); [6]
  GI50: 2.35 µM
SNB-19 (CNS); [7]
  GI50: 2.34 µM
SW-620 (colon); [6]
  GI50: 0.39 µM
SW-620 (colon); [7]
  GI50: 0.389 µM
TD-47D (breast); [6]
  GI50: 2.19 µM
TD-47D (breast); [7]
  GI50: 2.19 µM
UACC-257 (melanoma); [6]
  GI50: 1.52 µM
UACC-257 (melanoma); [7]
  GI50: 1.51 µM
Breast cancer cell lines; Breast panel, log of concentration in mol/L causing 50% inhibition of net cell growth, read-out: mean graph midpoint (MG_MID) of Log10 GI50 (converted)
  GI50: 1.58 µM
Breast cancer cell lines; Breast panel, log of concentration leading to 50% net cell death, read-out: mean graph midpoint (MG_MID) of Log10 LC50 (converted)
  LC50: 38 µM
Breast cancer cell lines; five breast cancer cell lines, exposure at least 48 hrs, read-out: GI50, range over the panel
  GI50: 0.31 to 3.41 µM
CNS cancer cell lines; CNS panel, log of concentration leading to 50% net cell death
  mean graph midpoint (MG_MID) of Log10 LC50: 5.13
CNS cancer cell lines; CNS panel, log of concentration in mol/L causing 50% inhibition of net cell growth, read-out: mean graph midpoint (MG_MID) of Log10 GI50 (converted)
  GI50: 1.86 µM
CNS cancer cell lines; six CNS cancer cell lines, exposure at least 48 hrs, read-out: GI50, range over the panel
  GI50: 0.63 to 4.47 µM
Colon cancer cell lines; Colon panel, log of concentration leading to 50% net cell death
  mean graph midpoint (MG_MID) of Log10 LC50: 5.23
Colon cancer cell lines; Colon panel, log of concentration in mol/L causing 50% inhibition of net cell growth, read-out: mean graph midpoint (MG_MID) of Log10 GI50 (converted)
  GI50: 0.832 µM
Colon cancer cell lines; seven colon cancer cell lines, exposure at least 48 hrs, read-out: GI50, range over the panel
  GI50: 0.33 to 1.51 µM
[1]; Leukemia panel, log of concentration in mol/L causing 50% inhibition of net cell growth, read-out: mean graph midpoint (MG_MID) of Log10 GI50 (converted)
  GI50: 0.562 µM
[1]; Leukemia panel, log of concentration leading to 50% net cell death, read-out: mean graph midpoint (MG_MID) of Log10 LC50 (converted)
  LC50: ≥ 100 µM
[1]; two leukemia cancer cell lines (RPMI-8226 and K-562), exposure at least 48 hrs, read-out: GI50, range over the panel
  GI50: 0.5 to 0.62 µM
[2]; Melanoma panel, log of concentration in mol/L causing 50% inhibition of net cell growth, read-out: mean graph midpoint (MG_MID) of Log10 GI50 (converted)
  GI50: 1.32 µM
[2]; nine melanoma cancer cell lines, exposure at least 48 hrs, read-out: GI50, range over the panel
  GI50: 0.48 to 2.06 µM
[2]; Melanoma panel, log of concentration leading to 50% net cell death
  mean graph midpoint (MG_MID) of Log10 LC50: 5.02
[3]; Non-small cell lung panel, log of concentration in mol/L causing 50% inhibition of net cell growth, read-out: mean graph midpoint (MG_MID) of Log10 GI50 (converted)
  GI50: 3.09 µM
[3]; Non-small cell lung panel, log of concentration leading to 50% net cell death, read-out: mean graph midpoint (MG_MID) of Log10 LC50 (converted)
  LC50: 32.4 µM
[3]; nine non-small cell lung cancer cell lines, exposure at least 48 hrs, read-out: GI50, range over the panel
  GI50: 0.95 to 14.6 µM
[4]; Ovarian panel, log of concentration in mol/L causing 50% inhibition of net cell growth, read-out: mean graph midpoint (MG_MID) of Log10 GI50 (converted)
  GI50: 1.74 µM
[4]; Ovarian panel, log of concentration leading to 50% net cell death, read-out: mean graph midpoint (MG_MID) of Log10 LC50 (converted)
  LC50: 42.7 µM
[4]; six ovarian cancer cell lines, exposure at least 48 hrs, read-out: GI50, range over the panel
  GI50: 1.1 to 3.27 µM
[5]; Homo sapiens, log of concentration in mol/L causing 50% inhibition of net cell growth, read-out: mean graph midpoint (MG_MID) of Log10 GI50 (converted)
  GI50: 3.24 µM
[5]; Homo sapiens, log of concentration leading to 50% net cell death, read-out: mean graph midpoint (MG_MID) of Log10 LC50 (converted)
  LC50: ≥ 100 µM
[5]; log of concentration resulting in total inhibition of net cell growth
  mean graph midpoint (MG_MID) of Log10 TGI: 4.68
Renal cancer cell lines; Renal panel, log of concentration in mol/L causing 50% inhibition of net cell growth, read-out: mean graph midpoint (MG_MID) of Log10 GI50 (converted)
  GI50: 1.91 µM
Renal cancer cell lines; Renal panel, log of concentration leading to 50% net cell death, read-out: mean graph midpoint (MG_MID) of Log10 LC50 (converted)
  LC50: 17 µM
Renal cancer cell lines; eight renal cancer cell lines, exposure at least 48 hrs, read-out: GI50, range over the panel
  GI50: 1.38 to 3.02 µM
